Columns and labels:
bedstraw = assay: Test B pre/postemergence bedstraw; format: in vivo, Galium aparine
How it was run: (§1)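 Herbicidal effect was estimated by eye on a ten-point control scale after plants spent twelve to sixteen days in a greenhouse following soil or foliar treatment. Foliar sprays targeted plants at one to four leaves; all doses were formulated in a non-phytotoxic solvent with surfactant.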

blackgrass = assay: Test B pre/postemergence blackgrass; format: in vivo, Alopecurus myosuroides
How it was run: as §1

surinam grass = assay: Test B pre/postemergence surinam grass; format: in vivo, Brachiaria decumbens
How it was run: as §1

cocklebur = assay: Test B pre/postemergence cocklebur; format: in vivo, Xanthium strumarium
How it was run: as §1

corn = assay: Test B pre/postemergence corn; format: in vivo, Zea mays
How it was run: as §1

crabgrass = assay: Test B pre/postemergence crabgrass; format: in vivo, Digitaria sanguinalis
How it was run: as §1

giant foxtail = assay: Test B pre/postemergence giant foxtail; format: in vivo, Setaria faberii
How it was run: as §1

pigweed = assay: Test B pre/postemergence pigweed; format: in vivo, Amaranthus retroflexus
How it was run: as §1

soybean = assay: Test B pre/postemergence soybean; format: in vivo, Glycine max
How it was run: as §1

sugar beet = assay: Test B pre/postemergence sugar beet; format: in vivo, Beta vulgaris
How it was run: as §1

velvetleaf = assay: Test B pre/postemergence velvetleaf; format: in vivo, Abutilon theophrasti
How it was run: as §1

wild oat = assay: Test B pre/postemergence wild oat; format: in vivo, Avena fatua
How it was run: as §1

purple nutsedge = assay: Test B pre/postemergence purple nutsedge; format: in vivo, Cyperus rotundus
How it was run: as §1

rice = assay: Test B flood test rice; format: in vivo, Oryza sativa
How it was run: (§2)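 Read-out is a visual response score from 0 (no effect) to 10 (complete control), assigned by comparison with untreated controls. Treatment was applied at the 2-leaf stage, and plants stayed in the greenhouse for twelve to sixteen days before scoring.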

smallflower flatsedge = assay: Test B flood test smallflower flatsedge; format: in vivo, Cyperus difformis
How it was run: as §2

bamyardgrass = assay: Test B flood test barnyardgrass; format: in vivo, Echinochloa crus-galli
How it was run: as §2

[1] = Preemergence, Rate 62 g/ha, scale of 0 to 10 where 0 is no effect and 10 is complete control
[2] = Preemergence, Rate 125 g/ha, 0 is no effect, 10 is complete control
[3] = Preemergence, Rate 250 g/ha, scale 0 to 10, 0 is no effect, 10 is complete control
[4] = Preemergence, Rate 500 g/ha, scale of 0 to 10 where 0 is no effect and 10 is complete control
[5] = Rate 62 g/ha, Postemergence, scale of 0 to 10 where 0 is no effect and 10 is complete control
[6] = Rate 125 g/ha, Postemergence, scale 0 to 10
[7] = Rate 500 g/ha, Postemergence, scale 0 to 10
[8] = Rate 62 g/ha, headed Pre-emergence (flood test species), scale 0 to 10 (0 no effect, 10 complete control)
[9] = Rate 125 g/ha, Pre-emergence, flood test species, scale 0 to 10 where 0 is no effect and 10 is complete control
[10] = Rate 250 g/ha, Pre-emergence, flood-test species, scale 0 to 10, 0 is no effect, 10 is complete control
[11] = Rate 500 g/ha, Pre-emergence, flood test species, scale 0 to 10 (0 no effect, 10 complete control)

## CC(C)N(C(=O)n1oc(=O)n(Cc2ccco2)c1=O)c1ccc(F)cc1F [Compound 208]
bedstraw; [1]
  Bedstraw plant response rating: 0
bedstraw; [2]
  Bedstraw plant response rating (0 to 10 scale): 0
bedstraw; [3]
  Bedstraw plant response rating: 0
bedstraw; [4]
  Plant response rating, Bedstraw: 0
bedstraw; [5]
  Bedstraw plant response rating: 0
bedstraw; [6]
  Bedstraw plant response rating: 0
bedstraw; Rate 250 g/ha, Postemergence
  Plant response rating (0 to 10; 0 is no effect, 10 is complete control), Bedstraw: 0
bedstraw; [7]
  Bedstraw plant response rating: 5
blackgrass; [1]
  Blackgrass plant response rating: 0
blackgrass; [2]
  Blackgrass plant response rating (0 to 10 scale): 0
blackgrass; [3]
  Blackgrass plant response rating: 0
blackgrass; [4]
  Plant response rating, Blackgrass: 3
blackgrass; [5]
  Blackgrass plant response rating: 0
blackgrass; [6]
  Blackgrass plant response rating: 0
blackgrass; Rate 250 g/ha, Postemergence
  Plant response rating (0 to 10; 0 is no effect, 10 is complete control), Blackgrass: 0
blackgrass; [7]
  Blackgrass plant response rating: 7
Surinam grass; [1]
  B. signalgrass plant response rating: 0
Surinam grass; [2]
  B. signalgrass plant response rating (0 to 10 scale): 0
Surinam grass; [3]
  B. signalgrass plant response rating: 0
Surinam grass; [4]
  Plant response rating, B. signalgrass: 0
Surinam grass; [5]
  B. signalgrass plant response rating: 0
Surinam grass; Rate 125 g/ha, Postemergence, scale 0 (no effect) to 10 (complete control)
  B. signalgrass plant response rating: 0
Surinam grass; Rate 250 g/ha, Postemergence
  Plant response rating (0 to 10; 0 is no effect, 10 is complete control), B. signalgrass: 0
Surinam grass; Rate 500 g/ha, Postemergence, scale 0 to 10, 0 no effect, 10 complete control
  B. signalgrass plant response rating: 3
cocklebur; [1]
  Cocklebur plant response rating: 0
cocklebur; [2]
  Cocklebur plant response rating (0 to 10 scale): 0
cocklebur; [3]
  Cocklebur plant response rating: 0
cocklebur; [4]
  Plant response rating, Cocklebur: 0
cocklebur; [5]
  Cocklebur plant response rating: 0
cocklebur; [6]
  Cocklebur plant response rating: 0
cocklebur; Rate 250 g/ha, Postemergence
  Plant response rating (0 to 10; 0 is no effect, 10 is complete control), Cocklebur: 0
cocklebur; [7]
  Cocklebur plant response rating: 0
corn; [1]
  Corn plant response rating: 0
corn; [2]
  Corn plant response rating (0 to 10 scale): 0
corn; [3]
  Corn plant response rating: 0
corn; [4]
  Plant response rating, Corn: 0
corn; [5]
  Corn plant response rating: 0
corn; [6]
  Corn plant response rating: 0
corn; Rate 250 g/ha, Postemergence
  Plant response rating (0 to 10; 0 is no effect, 10 is complete control), Corn: 0
corn; [7]
  Corn plant response rating: 0
crabgrass; [1]
  Crabgrass plant response rating: 4
crabgrass; [2]
  Crabgrass plant response rating (0 to 10 scale): 5
crabgrass; [3]
  Crabgrass plant response rating: 6
crabgrass; [4]
  Plant response rating, Crabgrass: 6
crabgrass; [5]
  Crabgrass plant response rating: 0
crabgrass; [6]
  Crabgrass plant response rating: 0
crabgrass; Rate 250 g/ha, Postemergence
  Plant response rating (0 to 10; 0 is no effect, 10 is complete control), Crabgrass: 0
crabgrass; [7]
  Crabgrass plant response rating: 3
Giant foxtail; [1]
  Giant foxtail plant response rating: 2
Giant foxtail; [2]
  Giant foxtail plant response rating (0 to 10 scale): 8
Giant foxtail; [3]
  Giant foxtail plant response rating: 9
Giant foxtail; [4]
  Plant response rating, Giant foxtail: 10
Giant foxtail; [5]
  Giant foxtail plant response rating: 0
Giant foxtail; [6]
  Giant foxtail plant response rating: 0
Giant foxtail; Rate 250 g/ha, Postemergence
  Plant response rating (0 to 10; 0 is no effect, 10 is complete control), Giant foxtail: 0
Giant foxtail; [7]
  Giant foxtail plant response rating: 1
pigweed; [1]
  Redroot pigweed plant response rating: 0
pigweed; [2]
  Redroot pigweed plant response rating (0 to 10 scale): 0
pigweed; [3]
  Redroot pigweed plant response rating: 0
pigweed; [4]
  Plant response rating, Redroot pigweed: 2
pigweed; [5]
  Redroot pigweed plant response rating: 0
pigweed; [6]
  Redroot pigweed plant response rating: 0
pigweed; Rate 250 g/ha, Postemergence
  Plant response rating (0 to 10; 0 is no effect, 10 is complete control), Redroot pigweed: 0
pigweed; [7]
  Redroot pigweed plant response rating: 0
soybean; [1]
  Soybean plant response rating: 0
soybean; [2]
  Soybean plant response rating (0 to 10 scale): 0
soybean; [3]
  Soybean plant response rating: 0
soybean; [4]
  Plant response rating, Soybean: 0
soybean; [5]
  Soybean plant response rating: 1
soybean; [6]
  Soybean plant response rating: 1
soybean; Rate 250 g/ha, Postemergence
  Plant response rating (0 to 10; 0 is no effect, 10 is complete control), Soybean: 2
soybean; [7]
  Soybean plant response rating: 2
Sugar beet; [1]
  Sugarbeets plant response rating: 0
Sugar beet; [2]
  Sugarbeets plant response rating (0 to 10 scale): 0
Sugar beet; [3]
  Sugarbeets plant response rating: 0
Sugar beet; [4]
  Plant response rating, Sugarbeets: 0
Sugar beet; [5]
  Sugarbeets plant response rating: 0
Sugar beet; [6]
  Sugarbeets plant response rating: 0
Sugar beet; Rate 250 g/ha, Postemergence
  Plant response rating (0 to 10; 0 is no effect, 10 is complete control), Sugarbeets: 0
Sugar beet; [7]
  Sugarbeets plant response rating: 0
velvetleaf; [1]
  Velvetleaf plant response rating: 0
velvetleaf; [3]
  Velvetleaf plant response rating: 0
velvetleaf; [4]
  Plant response rating, Velvetleaf: 3
velvetleaf; [5]
  Velvetleaf plant response rating: 1
velvetleaf; [6]
  Velvetleaf plant response rating: 1
velvetleaf; Rate 250 g/ha, Postemergence
  Plant response rating (0 to 10; 0 is no effect, 10 is complete control), Velvetleaf: 1
Wild oat; [1]
  Wild oats plant response rating: 0
Wild oat; [3]
  Wild oats plant response rating: 0
Wild oat; [4]
  Plant response rating, Wild oats: 3
Wild oat; [5]
  Wild oats plant response rating: 0
Wild oat; [6]
  Wild oats plant response rating: 0
Wild oat; Rate 250 g/ha, Postemergence
  Plant response rating (0 to 10; 0 is no effect, 10 is complete control), Wild oats: 0
Purple nutsedge; [1]
  Nutsedge plant response rating: 0
Purple nutsedge; [2]
  Nutsedge plant response rating (0 to 10 scale): 0
Purple nutsedge; [3]
  Nutsedge plant response rating: 0
Purple nutsedge; [4]
  Plant response rating, Nutsedge: 0
Purple nutsedge; [5]
  Nutsedge plant response rating: 0
Purple nutsedge; [6]
  Nutsedge plant response rating: 0
Purple nutsedge; Rate 250 g/ha, Postemergence
  Plant response rating (0 to 10; 0 is no effect, 10 is complete control), Nutsedge: 0
Purple nutsedge; [7]
  Nutsedge plant response rating: 0
rice; [8]
  Rice plant response rating: 0
rice; [9]
  Rice plant response rating: 0
rice; [10]
  Rice plant response rating: 0
rice; [11]
  Rice plant response rating: 0
Smallflower flatsedge; [8]
  S. Flatsedge plant response rating: 0
Smallflower flatsedge; [9]
  S. Flatsedge plant response rating: 0
Smallflower flatsedge; [10]
  S. Flatsedge plant response rating: 0
Smallflower flatsedge; [11]
  S. Flatsedge plant response rating: 0
bamyardgrass; [8]
  Barnyardgrass plant response rating: 0
bamyardgrass; [9]
  Barnyardgrass plant response rating: 0
bamyardgrass; [10]
  Barnyardgrass plant response rating: 0
bamyardgrass; [11]
  Barnyardgrass plant response rating: 0

Source: US6737383B1, “Herbicidal oxadiazolidines” (priority 1999, dated 2004)
